The source of these data is the NIST ThermoML archive (doi:10.1016/j.tca.2018.05.020).

± gives the expanded uncertainty stated by the source.

The conditions of series [1]: DSC.
Series [2] is described as follows: Molar enthalpy of transition or fusion. To be noted: Crystal; DSC.

Take `CNC(=O)c1ccc(N2C(=S)N(c3ccc(C#N)c(C(F)(F)F)c3)C(=O)C2(C)C)cc1F` [Enzalutamide]: the Triple point temperature in series [1] (Crystal) amounted to 469.15 ± 1 K. Further, the Glass transition temperature in series [1] (Glass) was determined as 85.00 ± 1 °C. Also, in series [2], the “Molar enthalpy of transition or fusion” value was determined as 8.61 ± 0.222 kcal/mol.
